{"source": "ChEMBL document CHEMBL1135913", "about": "“Structure-based design, synthesis, and biological evaluation of irreversible human rhinovirus 3C protease inhibitors. 6. Structure-activity studies of orally bioavailable, 2-pyridone-containing peptidomimetics” (J Med Chem, 2002)", "key": {"[1]": {"target": "T1, Human rhinovirus A protease (Human rhinovirus sp., UniProt Q4U254)", "T1 sequence (Q4U254 whole entry)": "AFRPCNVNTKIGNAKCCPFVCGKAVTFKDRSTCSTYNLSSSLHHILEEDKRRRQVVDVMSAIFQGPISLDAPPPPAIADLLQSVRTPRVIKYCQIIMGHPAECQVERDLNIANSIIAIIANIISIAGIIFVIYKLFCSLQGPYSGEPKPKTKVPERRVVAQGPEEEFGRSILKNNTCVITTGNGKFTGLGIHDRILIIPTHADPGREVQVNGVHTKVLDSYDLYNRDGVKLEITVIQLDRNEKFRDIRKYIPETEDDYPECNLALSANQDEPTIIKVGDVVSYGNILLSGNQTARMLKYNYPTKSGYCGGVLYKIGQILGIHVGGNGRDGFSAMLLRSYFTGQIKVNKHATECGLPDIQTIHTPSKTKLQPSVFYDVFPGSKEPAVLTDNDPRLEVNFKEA", "test": "Inhibition of HRV Protease 3CP (serotype 14).", "design": "species or system Rhinovirus B"}, "[2]": {"target": "T2, Human rhinovirus A protease (Human rhinovirus sp.) (UniProt Q4U254)", "T2 sequence (whole entry)": "T1 sequence (Q4U254 whole entry)", "test": "Inhibitory activity against Human Rhinovirus Protease 3C (serotype 14)", "conditions": "Rhinovirus B"}, "[3]": {"target": "T2, Human rhinovirus A protease (Human rhinovirus sp.)", "test": "(§1) cytotoxicity against HRV Protease 3CP (serotype 14)"}, "[4]": {"target": "T2, Human rhinovirus A protease (Human rhinovirus sp.)", "test": "as §1", "assay_type": "functional"}, "[5]": {"target": "T2, Human rhinovirus A protease (Human rhinovirus sp.)", "test": "cytotoxicity against Human Rhinovirus Protease 3C (serotype 10)", "assay_type": "functional"}, "[6]": {"target": "T2, Human rhinovirus A protease (Human rhinovirus sp.)", "test": "cytotoxicity against Human Rhinovirus Protease 3C (serotype 14)", "assay_type": "functional"}, "[7]": {"target": "T2, Human rhinovirus A protease (Human rhinovirus sp.)", "test": "cytotoxicity against Human Rhinovirus Protease 3C (serotype 1A)", "assay_type": "functional"}, "[8]": {"target": "T2, Human rhinovirus A protease (Human rhinovirus sp.)", "test": "cytotoxicity against HRV Protease 3CP (serotype 1A)", "assay_type": "functional"}, "[9]": {"target": "T2, Human rhinovirus A protease (Human rhinovirus sp.)", "test": "cytotoxicity against HRV Protease 3CP (serotype 10)", "assay_type": "functional"}, "[10]": {"target": "T2, Human rhinovirus A protease (Human rhinovirus sp.)", "test": "cytotoxicity against HRV Protease 3CP (serotype 1A),", "assay_type": "functional"}, "[11]": {"target": "T2, Human rhinovirus A protease (Human rhinovirus sp.)", "test": "cytotoxicity against HRV Protease 3CP (serotype 14),", "assay_type": "functional"}, "[12]": {"target": "T2, Human rhinovirus A protease (Human rhinovirus sp.)", "test": "cytotoxicity against HRV Protease 3CP (serotype 10),", "assay_type": "functional"}}}
{"smiles": "CCOC(=O)/C=C/[C@H](CCC(N)=O)NC(=O)[C@H](Cc1ccccc1)n1cccc(NC(=O)C2CCCO2)c1=O", "note": "(stereo partly specified)", "values": [{"measurement": "EC50", "setting": "[1]", "result": 1.78, "unit": "µM"}, {"measurement": "K obs / 1", "setting": "[2]", "result": 3750, "unit": "M⁻¹ s⁻¹"}, {"measurement": "CC50", "setting": "[3]", "result": "> 10", "unit": "µM"}]}
{"smiles": "CCOC(=O)/C=C/[C@H](CCC(N)=O)NC(=O)[C@H](Cc1ccccc1)n1cccc(NC(=O)c2cc(C)on2)c1=O", "values": [{"measurement": "EC50", "setting": "[1]", "result": 0.016, "unit": "µM"}, {"measurement": "K obs / 1", "setting": "[2]", "result": 329000, "unit": "M⁻¹ s⁻¹"}, {"measurement": "CC50", "setting": "[3]", "result": "> 10", "unit": "µM"}]}
{"smiles": "CCOC(=O)/C=C/[C@H](C[C@@H]1CCNC1=O)NC(=O)[C@H](Cc1ccccc1)n1cccc(NC(=O)OCc2ccccc2)c1=O", "values": [{"measurement": "CC50", "setting": "[4]", "result": "> 1", "unit": "µM"}, {"measurement": "K obs / 1", "setting": "[2]", "result": 380000, "unit": "M⁻¹ s⁻¹"}]}
{"smiles": "CCOC(=O)/C=C/[C@H](CCC(N)=O)NC(=O)[C@H](Cc1ccccc1)n1cccc(NC(=O)C(C)(C)C)c1=O", "values": [{"measurement": "EC50", "setting": "[1]", "result": 0.518, "unit": "µM"}, {"measurement": "K obs / 1", "setting": "[2]", "result": 5040, "unit": "M⁻¹ s⁻¹"}, {"measurement": "CC50", "setting": "[3]", "result": "> 10", "unit": "µM"}]}
{"smiles": "CCOC(=O)/C=C/[C@H](CCC(N)=O)NC(=O)[C@H](Cc1ccccc1)n1cccc(NC(=O)OCc2ccccc2)c1=O", "values": [{"measurement": "CC50", "setting": "[5]", "result": "> 10", "unit": "µM"}, {"measurement": "CC50", "setting": "[6]", "result": 50, "unit": "µM"}, {"measurement": "CC50", "setting": "[7]", "result": "> 10", "unit": "µM"}]}
{"smiles": "CCOC(=O)/C=C/[C@H](CCC(N)=O)NC(=O)[C@H](Cc1ccccc1)n1ccc(C)c(NC(=O)OCc2ccccc2)c1=O", "values": [{"measurement": "K obs / 1", "setting": "[2]", "result": 25800, "unit": "M⁻¹ s⁻¹"}]}
{"smiles": "CCOC(=O)/C=C/[C@H](CCC(N)=O)NC(=O)[C@H](Cc1ccccc1)n1ccc(C)c(NC(=O)c2cc(C)on2)c1=O", "values": [{"measurement": "K obs / 1", "setting": "[2]", "result": 116000, "unit": "M⁻¹ s⁻¹"}]}
{"smiles": "CCOC(=O)/C=C/[C@H](CCC(N)=O)NC(=O)[C@H](Cc1ccccc1)n1cccc(NC(=O)C2CCCC2)c1=O", "values": [{"measurement": "EC50", "setting": "[1]", "result": 0.034, "unit": "µM"}, {"measurement": "K obs / 1", "setting": "[2]", "result": 37400, "unit": "M⁻¹ s⁻¹"}, {"measurement": "CC50", "setting": "[3]", "result": "> 10", "unit": "µM"}]}
{"smiles": "Cc1cc(CCCOc2c(C)cc(-c3noc(C(F)(F)F)n3)cc2C)on1", "note": "[PLECONARIL]", "values": [{"measurement": "EC50", "setting": "[1]", "result": 0.058, "unit": "µM"}, {"measurement": "CC50", "setting": "[3]", "result": "> 10", "unit": "µM"}]}
{"smiles": "CCOC(=O)/C=C/[C@H](CCC(N)=O)NC(=O)[C@H](Cc1ccccc1)n1cccc(NC(=O)C2SCCS2)c1=O", "values": [{"measurement": "CC50", "setting": "[4]", "result": "> 10", "unit": "µM"}, {"measurement": "EC50", "setting": "[1]", "result": 0.104, "unit": "µM"}, {"measurement": "K obs / 1", "setting": "[2]", "result": 114000, "unit": "M⁻¹ s⁻¹"}, {"measurement": "CC50", "setting": "[8]", "result": "> 10", "unit": "µM"}, {"measurement": "CC50", "setting": "[9]", "result": "> 10", "unit": "µM"}]}
{"smiles": "CCOC(=O)/C=C/[C@H](CCC(N)=O)NC(=O)[C@H](Cc1ccc(F)c(F)c1)n1cccc(NC(=O)OCc2ccccc2)c1=O", "values": [{"measurement": "CC50", "setting": "[10]", "result": "> 10", "unit": "µM"}, {"measurement": "EC50", "setting": "[1]", "result": 0.003, "unit": "µM"}, {"measurement": "K obs / 1", "setting": "[2]", "result": 193000, "unit": "M⁻¹ s⁻¹"}, {"measurement": "CC50", "setting": "[11]", "result": "> 10", "unit": "µM"}, {"measurement": "CC50", "setting": "[12]", "result": "> 10", "unit": "µM"}]}
